Marks after values point to notes of the source that are not given here.
Test: True protein content of produced milk in sorbitol feeding trials
Assay type: in vivo, Holstein cows
Settings: for True Protein in Produced Milk: Pre-Partum Trial #1 (75/0/0 g/day in wk −3..−1/+1..+4/+5..+8)
Protocol: To determine the percent of total protein, wet basis, in a sample, the actual weight of total protein is determined in accordance with Method #991.20 (33.2.11) of Official Methods of Analysis, Association of Official Analytical Chemists (AOAC) (16th Ed., 1995). The value determined by the above method yields “total Kjeldahl nitrogen,” which is equivalent to “total protein” since the above method incorporates a factor that accounts for the average amount of nitrogen in protein. Since any and all total Kjeldahl nitrogen determinations presented herein are based on the above method, the terms “total Kjeldahl nitrogen” and “total protein” are used interchangeably herein. Furthermore, those skilled in the art will recognize that the term “total Kjeldahl nitrogen” is generally used in the art to mean “total protein” with the understanding that the factor has been applied. The weight percent total protein, wet basis, is calculated by dividing the actual weight of total protein by the actual weight of the sample. The weight percent of true protein, wet basis, for a particular sample is calculated after first determining the wet basis weight percent of total Kjeldahl nitrogen and the wet basis weight percent of non-protein nitrogen in the sample. The wet basis weight percent of total Kjeldahl nitrogen in the sample is determined using the method referenced above. The wet basis weight percent of non-protein nitrogen (NPN) in the sample is determined in accordance with Method #991.21 (33.2.12) of Official Methods of Analysis, Association of Official Analytical Chemists (AOAC) (16th Ed., 1995). The weight percent of true protein, wet basis, in the sample is then determined by subtracting the wet basis weight percent of non-protein nitrogen in the sample from the wet basis weight percent of total Kjeldahl nitrogen in the sample. Each cow of each of the six different trials (Control Trial #1, Control Trial #2, Pre-Partum Trial #1, Pre-Partum Trial #2, Pre/Post Trial #1, and Pre/Post Trial #2) was milked three times daily and the weight of produced milk by each cow was recorded at each milking. The milk from each cow was sampled once per week (⅓ of the sample volume from each of the three milkings occurring on the weekly milk sampling day) and was analyzed for true protein, total fat, lactose, and total solids, as detailed in the property determination and characterization techniques presented above. Additionally, samples of blood were periodically obtained from each cow during the four trials (Control Trial 2, Pre-Partum Trial #2, Pre/Post Trial #1, and Pre/Post Trial #2) encompassed in Example Two and were analyzed for non-esterified fatty acid (NEFA) content as detailed in the property determination and characterization techniques presented above. No NEFA analysis was conducted on the cows employed in Control Trial #1 or Pre-Partum Trial #1 that are the subject of Example One. Example One includes Control Trial #1 and Pre-Partum Trial #1. Both primiparious cows and multiparious cows were included in Control Trial #1 and Pre-Partum Trial #1. Five primiparious cows and fifteen multiparious cows were included in Control Trial #1; likewise, five primiparious cows and fifteen multiparious cows were included in Pre-Partum Trial #1. All cows included in Control Trial #1 and Pre-Partum Trial #1 were Holsteins. Example Two includes Control Trial #2, Pre-Partum Trial #2, Pre/Post Trial #1, and Pre/Post Trial #2. Only multiparious, Holstein cows were included in Control Trial #2, Pre-Partum Trial #1, Pre/Post Trial #1, and Pre/Post Trial #2. Eighteen multiparious cows were included in both Control Trial #2 and Pre-Partum Trial #2, while sixteen multiparious cows were included in Pre/Post Trial #1 and seventeen multiparious cows were included in Pre/Post Trial #2.

For `OC[C@@H](O)[C@@H](O)[C@H](O)[C@@H](O)CO` [sorbitol], the “True Protein in Produced Milk” value (multiparious cows, weeks +1 through +8) was 2.82 wt %, the “True Protein in Produced Milk” value (primiparious cows, weeks +1 through +8) was 2.9 wt % and the “increase in true protein concentration in the produced milk” value (Pre-Partum Trial #1 (75 g/day wk −3..−1 only) versus Control Trial #1, primiparious cows, weeks +1 through +8) was 7.4%. For the same compound, the “True Protein Content of Produced Milk” value (Pre-Partum Trial #2 (75/0/100 g/day in wk −3..−1/+1..+4/+5..+8), multiparious cows, week +1) was 3.95 weight %, the “True Protein Content of Produced Milk” value (Pre-Partum Trial #2 (75/0/100 g/day in wk −3..−1/+1..+4/+5..+8), multiparious cows, week +2) was 3.14 weight % and the “True Protein Content of Produced Milk” value (Pre-Partum Trial #2 (75/0/100 g/day in wk −3..−1/+1..+4/+5..+8), multiparious cows, week +3) was 2.81 weight %. For the same compound, the “True Protein Content of Produced Milk” value (Pre-Partum Trial #2 (75/0/100 g/day in wk −3..−1/+1..+4/+5..+8), multiparious cows, week +4) was 2.71^ab weight %, the “True Protein Content of Produced Milk” value (Pre-Partum Trial #2 (75/0/100 g/day in wk −3..−1/+1..+4/+5..+8), multiparious cows, week +5) was 2.63 weight % and the “True Protein Content of Produced Milk” value (Pre-Partum Trial #2 (75/0/100 g/day in wk −3..−1/+1..+4/+5..+8), multiparious cows, week +6) was 2.62 weight %. For the same compound, the “True Protein Content of Produced Milk” value (Pre-Partum Trial #2 (75/0/100 g/day in wk −3..−1/+1..+4/+5..+8), multiparious cows, week +7) was 2.60 weight %, the “True Protein Content of Produced Milk” value (Pre-Partum Trial #2 (75/0/100 g/day in wk −3..−1/+1..+4/+5..+8), multiparious cows, week +8) was 2.56 weight % and the “True Protein Content of Produced Milk” value (Pre-Partum Trial #2 (75/0/100 g/day in wk −3..−1/+1..+4/+5..+8), multiparious cows, weeks +1 through +4) was 3.11 weight %. For the same compound, the “True Protein Content of Produced Milk” value (Pre-Partum Trial #2 (75/0/100 g/day in wk −3..−1/+1..+4/+5..+8), multiparious cows, weeks +1 through +8) was 2.86 weight %, the “True Protein Content of Produced Milk” value (Pre-Partum Trial #2 (75/0/100 g/day in wk −3..−1/+1..+4/+5..+8), multiparious cows, weeks +5 through +8) was 2.60 weight % and the “True Protein Content of Produced Milk” value (Pre/Post Trial #1 (150/125/100 g/day in wk −3..−1/+1..+4/+5..+8), multiparious cows, week +1) was 4.01 weight %. The “True Protein Content of Produced Milk” value (Pre/Post Trial #1 (150/125/100 g/day in wk −3..−1/+1..+4/+5..+8), multiparious cows, week +1, two-trial comparison with Control Trial #2 (Table 24)) was 4.01 weight %, the “True Protein Content of Produced Milk” value (Pre/Post Trial #1 (150/125/100 g/day in wk −3..−1/+1..+4/+5..+8), multiparious cows, week +2) was 3.17 weight % and the “True Protein Content of Produced Milk” value (Pre/Post Trial #1 (150/125/100 g/day in wk −3..−1/+1..+4/+5..+8), multiparious cows, week +2, two-trial comparison with Control Trial #2 (Table 24)) was 3.17 weight %. The “True Protein Content of Produced Milk” value (Pre/Post Trial #1 (150/125/100 g/day in wk −3..−1/+1..+4/+5..+8), multiparious cows, week +3) was 2.85 weight %, the “True Protein Content of Produced Milk” value (Pre/Post Trial #1 (150/125/100 g/day in wk −3..−1/+1..+4/+5..+8), multiparious cows, week +3, two-trial comparison with Control Trial #2 (Table 24)) was 2.85 weight % and the “True Protein Content of Produced Milk” value (Pre/Post Trial #1 (150/125/100 g/day in wk −3..−1/+1..+4/+5..+8), multiparious cows, week +4) was 2.73^ab weight %. The “True Protein Content of Produced Milk” value (Pre/Post Trial #1 (150/125/100 g/day in wk −3..−1/+1..+4/+5..+8), multiparious cows, week +4, two-trial comparison with Control Trial #2 (Table 24)) was 2.73 weight %, the “True Protein Content of Produced Milk” value (Pre/Post Trial #1 (150/125/100 g/day in wk −3..−1/+1..+4/+5..+8), multiparious cows, week +5) was 2.65 weight % and the “True Protein Content of Produced Milk” value (Pre/Post Trial #1 (150/125/100 g/day in wk −3..−1/+1..+4/+5..+8), multiparious cows, week +5, two-trial comparison with Control Trial #2 (Table 24)) was 2.65 weight %. The “True Protein Content of Produced Milk” value (Pre/Post Trial #1 (150/125/100 g/day in wk −3..−1/+1..+4/+5..+8), multiparious cows, week +6) was 2.61 weight %, the “True Protein Content of Produced Milk” value (Pre/Post Trial #1 (150/125/100 g/day in wk −3..−1/+1..+4/+5..+8), multiparious cows, week +6, two-trial comparison with Control Trial #2 (Table 24)) was 2.61 weight % and the “True Protein Content of Produced Milk” value (Pre/Post Trial #1 (150/125/100 g/day in wk −3..−1/+1..+4/+5..+8), multiparious cows, week +7) was 2.57 weight %. The “True Protein Content of Produced Milk” value (Pre/Post Trial #1 (150/125/100 g/day in wk −3..−1/+1..+4/+5..+8), multiparious cows, week +7, two-trial comparison with Control Trial #2 (Table 24)) was 2.57 weight %, the “True Protein Content of Produced Milk” value (Pre/Post Trial #1 (150/125/100 g/day in wk −3..−1/+1..+4/+5..+8), multiparious cows, week +8) was 2.65 weight % and the “True Protein Content of Produced Milk” value (Pre/Post Trial #1 (150/125/100 g/day in wk −3..−1/+1..+4/+5..+8), multiparious cows, week +8, two-trial comparison with Control Trial #2 (Table 24)) was 2.65 weight %. For the same compound, the “True Protein Content of Produced Milk” value (Pre/Post Trial #1 (150/125/100 g/day in wk −3..−1/+1..+4/+5..+8), multiparious cows, weeks +1 through +4) was 3.18 weight %, the “True Protein Content of Produced Milk” value (Pre/Post Trial #1 (150/125/100 g/day in wk −3..−1/+1..+4/+5..+8), multiparious cows, weeks +1 through +4, two-trial comparison with Control Trial #2 (Table 24)) was 3.18 weight % and the “True Protein Content of Produced Milk” value (Pre/Post Trial #1 (150/125/100 g/day in wk −3..−1/+1..+4/+5..+8), multiparious cows, weeks +1 through +8) was 2.90 weight %. For the same compound, the “True Protein Content of Produced Milk” value (Pre/Post Trial #1 (150/125/100 g/day in wk −3..−1/+1..+4/+5..+8), multiparious cows, weeks +1 through +8, two-trial comparison with Control Trial #2 (Table 24)) was 2.90 weight %, the “True Protein Content of Produced Milk” value (Pre/Post Trial #1 (150/125/100 g/day in wk −3..−1/+1..+4/+5..+8), multiparious cows, weeks +5 through +8) was 2.62 weight % and the “True Protein Content of Produced Milk” value (Pre/Post Trial #1 (150/125/100 g/day in wk −3..−1/+1..+4/+5..+8), multiparious cows, weeks +5 through +8, two-trial comparison with Control Trial #2 (Table 24)) was 2.62 weight %. For the same compound, the “increase in true protein concentration in milk” value (“increase … in milk” for short) (Pre/Post Trial #1 (150/125/100 g/day) versus Control Trial #2, multiparious cows, weeks +1 through +4 (Table 24)) was 4.6%, the “increase … in milk” value (Pre/Post Trial #1 (150/125/100 g/day) versus Control Trial #2, multiparious cows, weeks +1 through +8 (Table 24)) was 2.8% and the “True Protein Content of Produced Milk” value (Pre/Post Trial #2 (75/75/100 g/day in wk −3..−1/+1..+4/+5..+8), multiparious cows, week +1) was 3.96 weight %. The “True Protein Content of Produced Milk” value (Pre/Post Trial #2 (75/75/100 g/day in wk −3..−1/+1..+4/+5..+8), multiparious cows, week +2) was 3.13 weight %, the “True Protein Content of Produced Milk” value (Pre/Post Trial #2 (75/75/100 g/day in wk −3..−1/+1..+4/+5..+8), multiparious cows, week +3) was 2.89 weight % and the “True Protein Content of Produced Milk” value (Pre/Post Trial #2 (75/75/100 g/day in wk −3..−1/+1..+4/+5..+8), multiparious cows, week +4) was 2.77^b weight %. For the same compound, the “True Protein Content of Produced Milk” value (Pre/Post Trial #2 (75/75/100 g/day in wk −3..−1/+1..+4/+5..+8), multiparious cows, week +5) was 2.70 weight %, the “True Protein Content of Produced Milk” value (Pre/Post Trial #2 (75/75/100 g/day in wk −3..−1/+1..+4/+5..+8), multiparious cows, week +6) was 2.69 weight % and the “True Protein Content of Produced Milk” value (Pre/Post Trial #2 (75/75/100 g/day in wk −3..−1/+1..+4/+5..+8), multiparious cows, week +7) was 2.64 weight %. For the same compound, the “True Protein Content of Produced Milk” value (Pre/Post Trial #2 (75/75/100 g/day in wk −3..−1/+1..+4/+5..+8), multiparious cows, week +8) was 2.61 weight %, the “True Protein Content of Produced Milk” value (Pre/Post Trial #2 (75/75/100 g/day in wk −3..−1/+1..+4/+5..+8), multiparious cows, weeks +1 through +4) was 3.18 weight % and the “True Protein Content of Produced Milk” value (Pre/Post Trial #2 (75/75/100 g/day in wk −3..−1/+1..+4/+5..+8), multiparious cows, weeks +1 through +8) was 2.91 weight %. The “True Protein Content of Produced Milk” value (Pre/Post Trial #2 (75/75/100 g/day in wk −3..−1/+1..+4/+5..+8), multiparious cows, weeks +5 through +8) was 2.66 weight %, the “increase … in milk” value (average of means of Pre-Partum Trial #2, Pre/Post Trial #1 and Pre/Post Trial #2 versus Control Trial #2, multiparious cows, weeks +1 through +4) was 3.8% and the “increase … in milk” value (average of means of Pre-Partum Trial #2, Pre/Post Trial #1 and Pre/Post Trial #2 versus Control Trial #2, multiparious cows, weeks +1 through +8) was 2.5%.
